Data: PubChem BioAssay (NCI)
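Values below derive from 48-hour exposures of cells grown in 96-well plates, with endpoints linearly interpolated between the two concentrations bracketing the appropriate inhibition level. Abbreviation: GI50, concentration required for 50% inhibition of growth. TGI: total growth inhibition.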

What was measured:
Assay in all cases: growth of human tumour cells (NCI), 48 h
CCRF-CEM leukemia = system: CCRF-CEM leukemia
786-0 renal = system: 786-0 renal
SNB-19 CNS = system: SNB-19 CNS
LOX IMVI melanoma = system: LOX IMVI melanoma
SK-OV-3 ovarian = system: SK-OV-3 ovarian
SR leukemia = system: SR leukemia
SK-MEL-2 melanoma = system: SK-MEL-2 melanoma
UO-31 renal = system: UO-31 renal
T-47D breast = system: T-47D breast

SMILES	TGI (CCRF-CEM leukemia)	TGI (786-0 renal)	TGI (SNB-19 CNS)	TGI (LOX IMVI melanoma)	TGI (SK-OV-3 ovarian)	TGI (SR leukemia)	TGI (SK-MEL-2 melanoma)	TGI (UO-31 renal)	TGI (T-47D breast)	GI50 (CCRF-CEM leukemia)	GI50 (SNB-19 CNS)	GI50 (LOX IMVI melanoma)	GI50 (SR leukemia)	GI50 (SK-MEL-2 melanoma)	GI50 (UO-31 renal)	GI50 (T-47D breast)	GI50 (SK-OV-3 ovarian)
CN(C)c1ccc(/C=C(\NC(=O)c2ccccc2)C2=NC(CCC(=O)O)C(=O)O2)cc1 (stereo not given)	> 50 µM	> 50 µM	> 50 µM	> 50 µM	> 50 µM	> 50 µM	> 50 µM	> 50 µM	> 50 µM	–	–	–	–	–	–	–	–
C=CCN(CCNS(=O)(=O)c1ccc(C)cc1)S(=O)(=O)c1ccc(C)cc1	> 100 µM	> 100 µM	> 100 µM	> 100 µM	> 100 µM	> 100 µM	94.3 µM	> 100 µM	> 100 µM	–	–	–	–	–	–	–	–
CC(C)=CCc1[nH]c2ccccc2c1C1=C(O)C(=O)C(c2c(CC=C(C)C)[nH]c3ccccc23)=C(O)C1=O	6.83 µM	10.2 µM	16.4 µM	4.22 µM	4.13 µM	4.44 µM	3.95 µM	3.14 µM	25 µM	–	–	–	–	–	–	–	–
CC1(C)CCC(C)(C)C1C(=O)NC(O)C(=O)O (stereo not given)	> 100 µM	> 100 µM	> 100 µM	> 100 µM	> 100 µM	> 100 µM	> 100 µM	> 100 µM	> 100 µM	–	–	–	–	–	–	–	–
CCOC(=O)c1nc2ccc(C(F)(F)F)cc2nc1Nc1ccc(Cl)c(Cl)c1	> 100 µM	> 100 µM	95.7 µM	> 100 µM	> 100 µM	> 100 µM	–	> 100 µM	> 100 µM	–	–	–	–	–	–	–	–
O=C(N/N=C\c1ccc(N(CCCl)CCCl)cc1[N+](=O)[O-])c1cccnc1	> 100 µM	–	> 100 µM	> 100 µM	–	> 100 µM	> 100 µM	> 100 µM	> 100 µM	> 100 µM	> 100 µM	> 100 µM	> 100 µM	> 100 µM	> 100 µM	> 100 µM	–
O=C(NC(=O)c1cc(-c2ccccc2)n[nH]1)c1ccccc1	> 100 µM	> 100 µM	–	> 100 µM	> 100 µM	79.2 µM	> 100 µM	> 100 µM	> 100 µM	–	–	–	–	–	–	–	–
COC(=O)c1ccc(C)cc1CC1Cc2ccc(C)cc2C1=O (stereo not given)	74.5 µM	48.5 µM	> 100 µM	14.8 µM	59.5 µM	8.68 µM	30.6 µM	64 µM	63 µM	–	–	–	–	–	–	–	–
Cc1ccc(-c2nc(N/N=C/c3ccc(O)cc3)c3ccccc3n2)cc1	> 100 µM	71.9 µM	> 100 µM	36.2 µM	> 100 µM	> 100 µM	32.7 µM	24.7 µM	26 µM	–	–	–	–	–	–	–	–
O=C(/C=C/c1cccc(Oc2ccccc2)c1)NCc1ccc(C(=O)NCCc2ccccc2)cc1	–	> 100 µM	> 100 µM	> 100 µM	> 100 µM	> 100 µM	> 100 µM	> 100 µM	> 100 µM	–	–	–	–	–	–	–	–
Cn1cc(-c2ccc3cc(-c4ccc(CC(=O)Nc5cc(C(C)(C)C)on5)cc4)cnc3c2)cn1	> 100 µM	–	8.68 µM	10.9 µM	> 100 µM	> 100 µM	12.4 µM	3.14 µM	> 100 µM	2.17 µM	2.18 µM	0.945 µM	3.07 µM	0.922 µM	0.382 µM	2.68 µM	0.657 µM
COc1ccc2c3c([nH]c2c1)CCN(CCCC(=O)c1ccc(F)cc1)C3	54.9 µM	27.1 µM	28.2 µM	26.7 µM	36.6 µM	36.6 µM	32 µM	27.5 µM	37 µM	–	–	–	–	–	–	–	–
CC(=O)Oc1c2c(c3n(c1=O)CCCC3)C(=O)N(c1ccccc1)C2=O	> 100 µM	> 100 µM	> 100 µM	> 100 µM	> 100 µM	> 100 µM	> 100 µM	> 100 µM	> 100 µM	–	–	–	–	–	–	–	–
Cn1ncc2c(Cl)ncnc21	–	> 100 µM	> 100 µM	> 100 µM	> 100 µM	> 100 µM	> 100 µM	> 100 µM	> 100 µM	–	–	–	–	–	–	–	–
C[C@@H]1C(=O)C[C@H]2C(C)(C)CCC[C@]2(C)[C@@]1(O)CCc1ccoc1	> 100 µM	> 100 µM	> 100 µM	> 100 µM	> 100 µM	> 100 µM	> 100 µM	> 100 µM	> 100 µM	–	–	–	–	–	–	–	–
Cc1csc2c1-n1cccc1C2=O	> 100 µM	> 100 µM	> 100 µM	> 100 µM	> 100 µM	> 100 µM	> 100 µM	> 100 µM	> 100 µM	–	–	–	–	–	–	–	–
Cc1sc2c(c1C)/C(=N\O)c1cccn1-2	> 100 µM	52.3 µM	63.2 µM	> 100 µM	> 100 µM	> 100 µM	> 100 µM	> 100 µM	> 100 µM	–	–	–	–	–	–	–	–
O=C1CC[C@@]2(O)[C@H]3Cc4ccc(-c5ccccc5)c5c4[C@@]2(CCN3CC2CC2)[C@H]1O5	49.7 µM	30.3 µM	59.6 µM	32.8 µM	54 µM	> 100 µM	33.7 µM	32.2 µM	35.7 µM	–	–	–	–	–	–	–	–
CC(=O)NC(C)(C)C1CCC(C)=C(c2ccccc2)C1 (stereo not given)	> 100 µM	> 100 µM	> 100 µM	> 100 µM	> 100 µM	> 100 µM	–	> 100 µM	> 100 µM	–	–	–	–	–	–	–	–
O=C(O)c1cnc(-n2[nH]c3c(c2=O)CCCC3)[nH]c1=O	> 100 µM	> 100 µM	> 100 µM	–	> 100 µM	> 100 µM	> 100 µM	> 100 µM	> 100 µM	–	–	–	–	–	–	–	–
CC(=O)Nc1ccc2[nH]c(C(=O)N3CC(CCl)c4c3cc([N+](=O)[O-])c3ccccc43)cc2c1 (stereo not given)	29 µM	> 100 µM	> 100 µM	> 100 µM	> 65.1 µM	5.83 µM	> 69.5 µM	–	9.92 µM	–	–	–	–	–	–	–	–
c1csc(-c2ccsc2-c2cccs2)c1	> 100 µM	> 100 µM	–	> 100 µM	> 100 µM	21.3 µM	–	> 100 µM	> 100 µM	–	–	–	–	–	–	–	–
CC(C)(C)c1cc(OCc2nn3c(Cc4ccccc4)nnc3s2)c(Cl)cc1OCc1nn2c(Cc3ccccc3)nnc2s1	> 100 µM	> 100 µM	> 100 µM	> 100 µM	> 100 µM	> 100 µM	> 100 µM	> 100 µM	> 100 µM	–	–	–	–	–	–	–	–
